Tests used:
[1] = tested on: hepatic CXCL10/IP-10, CXCL9/MIG, ICAM-1 and VCAM-1 expression; assay: Immunohistochemistry of liver sections after mirtazapine treatment; type: in vivo, mouse
Experimental: Male 8-10 week old C57BL/6 mice (Jackson Labs, Bar Harbor, Me.) were used. All procedures were approved by the University of Calgary Animal Care Committee (protocol numbers AC14-0129 and AC14-0128) and were performed in accordance with the guidelines of the Canadian Council on Animal Care. To delineate the impact of mirtazapine treatment upon liver immune cell numbers and phenotype, and upon cytokine/chemokine networks within the liver, mice were treated with mirtazapine 1-20 mg/kg intraperitoneally^13-15. Mirtazapine was suspended in 1% aqueous solution of Tween 80, whereas the control group received 1% aqueous solution of Tween 80. Blood and liver samples were collected 5 hours post-mirtazapine treatment (or 16 hours post-Con A treatment). The detailed experimental protocols, lists of antibodies and reagents used, flow cytometry gating, and immune cell phenotyping strategies, are described herein. Hepatic CXCL10/IP-10, CXCL9/MIG, ICAM-1 and VCAM-1 expression were determined using immunohistochemistry, as previously described. Briefly, following initial deparaffinization and rehydration of tissue sections, antigen retrieval was performed in lx Citrate buffer, PH 6.0 (Abcam) for IP-10/CXCL9 and MIG/CXCL9, or in 1X EDTA buffer pH 8.0 for ICAM1 and VCAM-1. In all cases slides were incubated in antigen retrieval buffer at 95-100° C. for 20 minutes. […] This was followed by incubation with biotinylated rabbit anti-goat, goat-anti rat or goat anti-rabbit secondary antibodies (at 1:150) for 1 hour at room temperature (Vector Labs). Negative staining controls were performed by omission of primary antibody, or by omission of both primary and secondary antibodies. […] This was followed by incubation with Vectastain Elite ABC kit (Vector Laboratories) for 30 min at room temperature. Color was developed with Nova Red Chromogen (ImmPACT NovaRED Peroxidase Substrate, Vector Lab, Burlingame, Calif.), after which sections were counterstained with hematoxylin (EMD Millipore). Mounted slides were converted to virtual slides with a BX61 VS virtual microscopy system equipped with an XC10 camera and VS ASW software (Olympus) (original magnification ×400). For ICAM-1, VCAM1, CXCL9/Mig, and CXCL10/IP10 expression, all scanned virtual slides of the sections were examined in a blinded fashion, and expression patterns evaluated and described.

PBC patients = assay: THIN database cohort study of PBC patients: decompensation, liver transplant and mortality free survival by drug usage; type: in vivo, human
Excerpt: We conducted a cohort study using The Health Improvement Network (THIN). THIN is one of the largest medical databases in the UK^8, consisting of prospectively gathered electronic medical records from over 11.1 million patients^8. […] Data from participant general practitioners across the UK is exported to the THIN administrators and database, which is updated every 3 months^11. The THIN database records demographic data and clinical events using Read codes, prescription medications, and laboratory values^12.
We identified patients with PBC Read code “J6160” from April 1974 until May 2007. This cohort was followed until May 2012. We excluded patients having overlap syndrome with autoimmune hepatitis or primary sclerosing cholangitis. The first code of PBC identified in the THIN database was considered the index (ie. diagnosis) date. FIG. 10 provides a flow diagram illustrating the selection of the study population. The primary outcome was the first occurrence of one of the three events following the diagnosis of PBC: (1) decompensation of cirrhosis (ascites, spontaneous bacterial peritonitis, hepatic encephalopathy, hepatorenal syndrome, variceal bleeding, jaundice, or hepatocellular carcinoma); (2) liver transplantation; or (3) death.
Read codes were used to identify patients with chronic depression disorder. Chronic depression was defined as follows: (1) never diagnosed with chronic depression; (2) past depression diagnosis prior to 90 days from PBC diagnosis; and (3) current depression diagnosis if a diagnosis was made within 90 days before or after a PBC diagnosis. Using THIN database therapy files, we assessed the impact of anti-depressant medications on outcomes of PBC patients (mortality, decompensation, and liver transplant).
For each anti-depressant medication, use was defined as follows: (1) never used the medication; (2) past use as defined as a previous code for medication use prior to 90 days of PBC diagnosis; and (3) current medication user if the medication code was identified within 90 days before or after a PBC diagnosis. We assessed the effect of each anti-depressant medication on study outcomes separately. Antidepressants were classified as typical or atypical and stratified accordingly. Atypical antidepressants include: Agomelatine, Bupropion and Mirtazapine. While typical antidepressants include the following groups: (a) Selective Serotonin Reuptake Inhibitors (SSRI): Citalopram, Escitalopram, Fluoxetine, Fluvoxamine, Paroxetine and Sertraline; (b) […] (SNRI): Desvenlafaxine, Duloxetine, Minacipran and Venlafaxine; (c) Serotonin modulators: Nefazodone, Trazodone and Vilazodone; (d) Tricyclics and tetracyclics: Amitriptyline, Amoxapine, Clomipramine, Desipramine, Doxepin, Imipramine, Maprotiline, Nortriptyline and Protriptyline, Trimiprramine; (e) Monamine oxidase inhibitors: Isocarboxazid, Phenelzine, Selegiline and Tranylcypromine.
We assessed age at diagnosis of PBC, sex, and the presence of coexisting liver disease (ie. chronic hepatitis either viral, alcoholic, or fatty liver disease; yes/no). Smoking status was classified (current, former, never smoked, or unknown status) at the time of PBC diagnosis, alcohol consumption was classified (current, former, never consumed alcohol, or unknown status) at PBC diagnosis. Ursodeoxycholic acid (UDCA) usage (ever/never recorded) was also determined.
In our primary analysis, we assessed demographic, clinical, and medication variables in the PBC cohort according to depression status. Where appropriate, we used the Fisher Exact test or Chi-Square test for categorical data, and the Kruskal-Wallis or Student's t-test for continuous data. Univariate analysis using Log Rank test and multivariate Cox Proportional Regression models were used to assess the impact of depression or anti-depressant medications on PBC outcomes as defined by death, decompensated cirrhosis, or liver transplant. […]

[2] = usage prior to PBC diagnosis vs none

CN1CCN2c3ncccc3Cc3ccccc3C2C1 (stereo not shown) [Mirtazapine]
Hepatic CXCL10 expression (IHC) ([1]; hepatocytes and sinusoidal endothelium, vs vehicle): strikingly increased
Hepatic ICAM-1 expression (IHC) ([1]; normal liver, vs vehicle): did not notably alter ICAM-1 expression
Hepatic VCAM-1 expression (IHC) ([1]; normal liver, vs vehicle): enhanced VCAM-1 staining intensity in sinusoidal endothelium and a marked increase in VCAM-1 expression intensity in sinusoidal immune cells
Hepatic CXCL9 staining (IHC) ([1]; vs vehicle treated mice): increased CXCL9 staining mainly within hepatocytes
Protective effect against liver decompensation, transplantation, or death (PBC patients; PBC cohort): over four-fold protective effect
Requirement of liver transplant (PBC patients; PBC patients who had ever used the drug): None of the PBC patients who had ever used mirtazapine required liver transplant
Multivariate model-2 HR (include age, gender, alcohol, URSO, depression, mirtazapine) (PBC patients; current usage (after PBC diagnosis) vs none): 0.23
Univariate HR, 10-year decompensation, liver transplant and mortality free survival (PBC patients; current usage vs none): 0.22
Adjusted HR, mortality (PBC patients; current usage, outcome assessed separately): 0.22
Adjusted HR, liver decompensation (PBC patients; current usage, outcome assessed separately, not significant): 0.22
Adjusted HR, decompensated cirrhosis, liver transplant and mortality (PBC patients; sensitivity analysis: only patients using UDCA (n=793), current usage): 0.21
Multivariate model-2 HR (include age, gender, alcohol, URSO, depression, mirtazapine) (PBC patients; [2]): 0.94
Univariate HR, 10-year decompensation, liver transplant and mortality free survival (PBC patients; [2]): 0.84

— US11510928B2, “Use of mirtazapine in the treatment of inflammatory disorders, autoimmune disease and PBC” (UTI Limited Partnership, priority 2017, dated 2022)
